The record followed here is US6211250A, “Percutaneous delivery system” (Soltec Research Pty Ltd., priority 1996, dated 2001).

Entries after “also recorded” stand apart in the source; their conditions may differ.

Data set [1] can be described thus: In vitro skin diffusion through shed snake skin in horizontal flow-through diffusion cells. The format is in vitro ADME, Children's Python. The settings on record: result in words. The text has this: The Children's Python shed snake skin was obtained during natural shedding and the dorsal skin was used. Shed snake skin has shown to be a suitable model membrane for human skin by Itoh, et al., Use of Shed Snake Skin as a Model Membrane for In Vitro Percutaneous Penetration Studies: Comparison with Human Skin Pharm.
Method of Conducting In-Vitro Skin Diffusion Experiments in Horizontal Diffusion Cells
A modified stainless steel flow-through diffusion cell assembly based on that first shown by Cooper in J. Pharm. Sci. 73, 1984, was used to perform the experiments on diffusion of the drugs from various donor compositions through snake skin.
Topical formulations are weighed out onto the skin substrate which has an area of 0.79 cm^2. Active substance penetrates through the skin and into the receptor solution in the bottom section of the cell. Inlet and outlet tubes connected to the receptor chamber maintain skin conditions.
The temperature of the skin was maintained at 32° C.
The receptor solution consisted of 50% propylene glycol in water, made isotonic with 0.9% sodium chloride and preserved with 0.1% sodium azide.
The concentration of applied drug in each diffusion cell sample was measured using high pressure liquid chromatography (HPLC) and absorbance detection. The results reported for each experiment are average values of the replicate diffusion cells. […]

The subject of data set [2] is Candida albicans. The settings on record: result in words.
Method: The gels and cream were applied to round glass cover slips of 5 cm^2 each. The application rate for all products was 5 mg/cm^2.
After drying, the coated side of the slides were placed on MEA plates which had been previously seeded with a culture of C. albicans. The plates were incubated at 37° C. for 72 hours. The zone of inhibition was measured around the test slides at the end of the incubation period. Furthermore the slides were removed and an assessment of the growth of the test organism was made in the contact zone with the slide. All tests were performed in duplicate.

For `CC(C(=O)O)c1cccc(C(=O)c2ccccc2)c1` (stereo not drawn) [Ketoprofen, ketoprofen], the “penetration / rate of release of Ketoprofen into the skin (FIG. 3)” value in data set [1] (Example 3, varying level of Dermacryl 79) is reported as “the rate of the release of Ketoprofen into the skin of the subject can be varied”. Moreover, the “penetration of ketoprofen (FIG. 5)” value in data set [1] (Example 8, different hydrophobic polymers) was “can be controlled through the incorporation of hydrophobic polymers”.

In the case of `Clc1ccccc1C(c1ccccc1)(c1ccccc1)n1ccnc1` [clotrimazole], in data set [2], the “activity of clotrimazole in the gel film against C. albicans” value is “biologically active within the film according to the invention and in fact is more active than the commercial clotrimazole cream; also recorded: could be increased by addition of a plasticiser ie., propylene glycol”.
